# Assay results reported in PMC8355244, “A fragment-based approach identifies an allosteric pocket that impacts malate dehydrogenase activity” (Communications Biology, 2021).
# Experiment: Precipitation / turbidity of compound in assay buffer (600 nm)
# Type: physicochemical
# Conditions: activity screening buffer, 500 µM
# Procedure: 1.3 µL of derivatives of 4-phenylthiazol-2-amine in 100% DMSO were mixed with 237.7 µL of a mastermix of WT PfMDH previously incubated with NAD+. The final compound concentration used in this screening was 500 µM in the presence of 0.5% (v/v) DMSO. The microplate was sealed with silver foil for 1-h incubation at 25–35 °C. Finally, reactions in both the samples and control wells were started upon the addition of 13.0 µL of 5 mM malate). At the end of the experiments, the reaction of the plate was spectrophotometrically assayed at 600 nm in order to identify turbidity due to the low solubility of the compound. All measurements were performed in duplicate.
smiles,measurement,value
CC(C)c1ccc(-c2csc(N)n2)cc1 [compound 10a],precipitation of compound in the buffer,precipitation of compound was observed
